Experimental data from US20080171732A1, “New Pyridine Analogues IX 519” (AstraZeneca AB, priority 2007, published 2008).

Target: T1, P2Y12 receptor (Homo sapiens, UniProt Q9H244)
T1 construct: expressed in transfected cells; host or cells: CHO cells (membranes)
Test: Functional inhibition of 2-Me-S-ADP induced P2Y12 signalling (35S-GTPγS, cell membranes from P2Y12 transfected CHO-cells)
Format: biochemical
Settings: EC80 concentration of agonist 2-methyl-thio-adenosine diphosphate, 30° C., 45 min
Method: Functional inhibition of-the P2Y12 receptor can be measured by in vitro assays using cell membranes from P2Y12 transfected CHO-cells, the methodology is indicated below.
(§1) Functional inhibition of 2-Me-S-ADP induced P2Y12 signalling: 5 μg of membranes were diluted in 200 μl of 200 mM NaCl, 1 mM MgCl2, 50 mM HEPES (pH 7.4), 0.01% BSA, 30μg/ml saponin and 10 μM GDP. To this was added an EC80 concentration of agonist (2-methyl-thio-adenosine diphosphate), the required concentration of test compound and 0.1 μCi ^35S-GTPγS. The reaction was allowed to proceed at 30° C. for 45 min. Samples were then transferred on to GF/B filters using a cell harvester and washed with wash buffer (50 mM Tris (pH 7.4), 5 mM MgCl2, 50 mM NaCl). Filters were then covered with scintilant and counted for the amount of ^35S-GTPγS retained by the filter. Maximum activity was that determined in the presence of the agonist and minimum activity in the absence of the agonist following subtraction of the value determined for non-specific activity. The effect of compounds at various concentrations was plotted according to the equation
y=A+((B−A)/(1+((C/x)̂D)))
and IC50 estimated where • A is the bottom plateau of the curve i.e. the final minimum y value • B is the top of the plateau of the curve i.e. the final maximum y value • C is the x value at the middle of the curve. This represents the log EC50 value when A+B=100 • D is the slope factor. • x is the original known x values. • Y is the original known y values.
as §1, with “30 μg/ml” for “30μg/ml”, “0. 1” for “0.1”

T1 sequence (Q9H244 whole entry): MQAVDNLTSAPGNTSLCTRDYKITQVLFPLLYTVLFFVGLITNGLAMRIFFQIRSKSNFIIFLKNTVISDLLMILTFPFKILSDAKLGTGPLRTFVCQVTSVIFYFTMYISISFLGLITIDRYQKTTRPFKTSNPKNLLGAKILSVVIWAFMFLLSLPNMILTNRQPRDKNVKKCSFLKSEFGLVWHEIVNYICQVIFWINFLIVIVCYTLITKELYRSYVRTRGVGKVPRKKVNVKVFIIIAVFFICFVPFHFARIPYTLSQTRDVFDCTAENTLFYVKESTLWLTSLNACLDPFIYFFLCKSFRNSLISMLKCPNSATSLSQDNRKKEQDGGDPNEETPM

Molecule	IC50
CCOC(=O)c1cc(C#N)c(N2CCC(C(=O)NS(=O)(=O)Cc3ccccc3)CC2)nc1Cn1ccnc1 [Example 49, Ethyl6-{4-[(benzylsulfonyl)carbamoyl]piperidin-1-yl}-5-cyano-2-(1H-imidazol-1-ylmethyl)nicotinate]	0.073 µM
CCCC(=O)c1cc(C#N)c(N2CCC(C(=O)NS(=O)(=O)Cc3ccc(F)cc3)CC2)nc1OC [Example 51, 1-(5-Butyryl-3-cyano-6-methoxypyridin-2-yl)-N-[(4-fluorobenzyl)sulfonyl]piperidine-4-carboxamide]	0.05 µM
CCCC(=O)c1cc(C#N)c(N2CCC(C(=O)NS(=O)(=O)Cc3ccc(Cl)cc3)CC2)nc1OC [Example 52, 1-(5-Butyryl-3-cyano-6-methoxypyridin-2-yl)-N-[(4-chlorobenzyl)sulfonyl]piperidine-4-carboxamide]	0.055 µM
CCCC(=O)c1cc(C#N)c(N2CCC(C(=O)NS(=O)(=O)Cc3ccccc3)CC2)nc1OC [Example 53, N-(Benzylsulfonyl)-1-(5-butyryl-3-cyano-6-methoxypyridin-2-yl)piperidine-4-carboxamide]	0.076 µM
CCOC(=O)c1cc(Cl)c(N2CCC(C(=O)NS(=O)(=O)Cc3ccccc3)CC2)nc1SC [Example 54, Ethyl6-{4-[(benzylsulfonyl)carbamoyl]piperidin-1-yl}-5-chloro-2-(methylthio)nicotinate]	0.039 µM
CCOC(=O)c1cc(Cl)c(N2CCC(C(=O)NS(=O)(=O)Cc3ccccc3)CC2)nc1Cl [Example 59, Ethyl6-{4-[(benzylsulfonyl)carbamoyl]piperidin-1-yl}-2,5-dichloronicotinate]	0.033 µM

The next molecules have a lower IC50 than those just listed; values first:

IC50	Molecule
0.016 µM	CC(C)OC(=O)c1cc(C#N)c(N2CCC(C(=O)NS(=O)(=O)Cc3ccccc3)CC2)nc1C#N [Example 50, Isopropyl6-{4-[(benzylsulfonyl)carbamoyl]piperidin-1-yl}-2,5-dicyanonicotinate]
0.011 µM	COc1nc(N2CCC(C(=O)NS(=O)(=O)Cc3ccc(Cl)cc3)CC2)c(C#N)cc1C(=O)OC(C)C [Example 55, Isopropyl6-(4-{[(4-chlorobenzyl)sulfonyl]carbamoyl}piperidin-1-yl)-5-cyano-2-methoxynicotinate]
0.025 µM	COc1nc(N2CCC(C(=O)NS(=O)(=O)Cc3ccc(F)cc3)CC2)c(C#N)cc1C(=O)OC(C)C [Example 56, Isopropyl5-cyano-6-(4-{[(4-fluorobenzyl)sulfonyl]carbamoyl}piperidin-1-yl)-2-methoxynicotinate]
0.018 µM	CCOC(=O)c1cc(C#N)c(N2CC(C(=O)NS(=O)(=O)Cc3ccccc3)C2)nc1SC [Example 57, Ethyl6-{3-[(benzylsulfonyl)carbamoyl]azetidin-1-yl}-5-cyano-2-(methylthio)nicotinate]
0.0077 µM	CCOC(=O)c1cc(C#N)c(N2CCC(C(=O)NS(=O)(=O)Cc3ccccc3)CC2)nc1SC [Example 58, Ethyl6-{4-[(benzylsulfonyl)carbamoyl]piperidin-1-yl}-5-cyano-2-(methylthio)nicotinate]
0.027 µM	COc1nc(N2CCC(C(=O)NS(=O)(=O)Cc3ccccc3)CC2)c(C#N)cc1C(=O)OC(C)C [Example 60, Isopropyl6-{4-[(benzylsulfonyl)carbamoyl]piperidin-1-yl}-5-cyano-2-methoxynicotinate]
0.015 µM	Ethyl5-cyano-6-(3-{[(2-fluorobenzyl)sulfonyl]carbamoyl}azetidin-1-yl)-2-methoxynicotinate [Example 21]
